Active and inactive are the calls of the source. The calls are words filed in the database; no cut-off is given here.
Legend:
[1] = target: T1, Ephrin type-B receptor 2 (Homo sapiens) (UniProt P29323); assay: Inhibition of EPHB2 (unknown origin) at 10 uM by Ambit Kinomescan binding assay relative to control
T1 sequence (whole entry): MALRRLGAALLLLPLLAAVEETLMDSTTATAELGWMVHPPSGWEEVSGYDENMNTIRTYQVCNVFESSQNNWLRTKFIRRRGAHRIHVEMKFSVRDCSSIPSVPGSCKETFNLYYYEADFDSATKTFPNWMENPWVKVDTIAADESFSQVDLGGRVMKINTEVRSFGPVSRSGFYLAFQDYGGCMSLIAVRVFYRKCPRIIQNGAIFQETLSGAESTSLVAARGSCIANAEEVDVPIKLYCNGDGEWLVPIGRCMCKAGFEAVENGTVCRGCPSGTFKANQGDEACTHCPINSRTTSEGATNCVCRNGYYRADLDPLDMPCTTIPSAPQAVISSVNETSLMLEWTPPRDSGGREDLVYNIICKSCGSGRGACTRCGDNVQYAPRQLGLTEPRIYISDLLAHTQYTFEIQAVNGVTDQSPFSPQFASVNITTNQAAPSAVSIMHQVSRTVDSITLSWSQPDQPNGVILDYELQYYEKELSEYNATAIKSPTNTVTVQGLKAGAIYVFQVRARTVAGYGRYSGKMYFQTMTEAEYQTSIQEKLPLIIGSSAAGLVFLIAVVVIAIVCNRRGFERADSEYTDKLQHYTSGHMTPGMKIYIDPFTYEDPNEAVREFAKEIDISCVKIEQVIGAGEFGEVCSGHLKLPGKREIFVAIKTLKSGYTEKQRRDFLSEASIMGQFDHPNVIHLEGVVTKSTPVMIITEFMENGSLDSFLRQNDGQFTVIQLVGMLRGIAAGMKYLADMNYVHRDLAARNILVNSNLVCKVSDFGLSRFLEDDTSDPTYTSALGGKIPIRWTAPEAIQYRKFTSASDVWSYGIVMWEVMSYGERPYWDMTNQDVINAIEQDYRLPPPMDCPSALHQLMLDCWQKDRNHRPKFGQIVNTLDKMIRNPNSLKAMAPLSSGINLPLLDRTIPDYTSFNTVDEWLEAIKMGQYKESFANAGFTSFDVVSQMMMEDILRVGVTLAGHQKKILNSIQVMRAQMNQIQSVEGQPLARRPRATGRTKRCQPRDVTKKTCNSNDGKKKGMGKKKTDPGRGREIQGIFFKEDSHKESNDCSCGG

[2] = target: Protein kinase C theta type (Homo sapiens) (UniProt Q04759); assay: Inhibition of PRKCQ (unknown origin) at 10 uM by Ambit Kinomescan binding assay
Protein kinase C theta type (Homo sapiens), sequence (Q04759 whole entry, looked up): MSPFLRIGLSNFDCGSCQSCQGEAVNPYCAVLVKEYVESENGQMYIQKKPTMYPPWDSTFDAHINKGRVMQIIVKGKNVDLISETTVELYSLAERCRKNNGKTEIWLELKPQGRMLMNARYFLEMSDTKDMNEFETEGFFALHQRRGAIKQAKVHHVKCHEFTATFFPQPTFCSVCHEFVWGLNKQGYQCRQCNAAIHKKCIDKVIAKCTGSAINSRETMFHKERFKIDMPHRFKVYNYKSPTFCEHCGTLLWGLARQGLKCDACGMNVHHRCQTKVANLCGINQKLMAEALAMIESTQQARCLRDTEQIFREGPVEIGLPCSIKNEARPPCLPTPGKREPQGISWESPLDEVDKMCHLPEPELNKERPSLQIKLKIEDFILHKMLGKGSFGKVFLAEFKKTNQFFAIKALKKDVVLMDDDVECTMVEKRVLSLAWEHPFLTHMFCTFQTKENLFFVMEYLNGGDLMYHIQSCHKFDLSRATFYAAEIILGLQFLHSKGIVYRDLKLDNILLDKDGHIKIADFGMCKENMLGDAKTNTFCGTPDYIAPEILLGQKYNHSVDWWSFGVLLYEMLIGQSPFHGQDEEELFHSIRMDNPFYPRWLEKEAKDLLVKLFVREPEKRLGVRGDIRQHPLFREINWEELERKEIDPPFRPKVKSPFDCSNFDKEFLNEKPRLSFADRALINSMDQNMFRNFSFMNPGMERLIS

[3] = target: T2, Mitogen-activated protein kinase kinase kinase 3 (Homo sapiens) (UniProt Q99759); assay: Inhibition of MAP3K3 Lys2 labeling site in human A-375 cells at 0.5 uM by KiNativ Profiling analysis relative to control; type: cell-based
T2 sequence (whole entry): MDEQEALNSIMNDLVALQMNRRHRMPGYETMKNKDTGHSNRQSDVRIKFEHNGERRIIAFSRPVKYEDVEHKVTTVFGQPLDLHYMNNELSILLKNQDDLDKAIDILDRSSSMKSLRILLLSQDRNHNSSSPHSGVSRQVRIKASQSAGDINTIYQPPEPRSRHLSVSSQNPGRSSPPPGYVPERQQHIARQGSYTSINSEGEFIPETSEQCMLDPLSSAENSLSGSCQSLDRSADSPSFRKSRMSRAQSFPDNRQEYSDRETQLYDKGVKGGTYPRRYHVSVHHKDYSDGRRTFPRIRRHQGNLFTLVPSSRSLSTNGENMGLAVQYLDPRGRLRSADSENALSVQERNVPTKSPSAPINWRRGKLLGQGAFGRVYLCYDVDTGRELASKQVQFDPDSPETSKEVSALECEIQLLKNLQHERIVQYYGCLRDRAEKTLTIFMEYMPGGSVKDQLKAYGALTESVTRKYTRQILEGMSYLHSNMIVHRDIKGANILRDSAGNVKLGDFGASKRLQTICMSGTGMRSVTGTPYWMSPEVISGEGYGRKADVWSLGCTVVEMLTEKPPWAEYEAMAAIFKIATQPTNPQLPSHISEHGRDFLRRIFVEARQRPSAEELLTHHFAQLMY

[4] = target: Serine/threonine-protein kinase/endoribonuclease IRE1 (Homo sapiens) (UniProt O75460); assay: Inhibition of IRE1 Lys2 labeling site in human A-375 cells at 0.05 uM by KiNativ Profiling analysis relative to control; type: cell-based
Serine/threonine-protein kinase/endoribonuclease IRE1 (Homo sapiens), sequence (O75460 19-977 limits assumed): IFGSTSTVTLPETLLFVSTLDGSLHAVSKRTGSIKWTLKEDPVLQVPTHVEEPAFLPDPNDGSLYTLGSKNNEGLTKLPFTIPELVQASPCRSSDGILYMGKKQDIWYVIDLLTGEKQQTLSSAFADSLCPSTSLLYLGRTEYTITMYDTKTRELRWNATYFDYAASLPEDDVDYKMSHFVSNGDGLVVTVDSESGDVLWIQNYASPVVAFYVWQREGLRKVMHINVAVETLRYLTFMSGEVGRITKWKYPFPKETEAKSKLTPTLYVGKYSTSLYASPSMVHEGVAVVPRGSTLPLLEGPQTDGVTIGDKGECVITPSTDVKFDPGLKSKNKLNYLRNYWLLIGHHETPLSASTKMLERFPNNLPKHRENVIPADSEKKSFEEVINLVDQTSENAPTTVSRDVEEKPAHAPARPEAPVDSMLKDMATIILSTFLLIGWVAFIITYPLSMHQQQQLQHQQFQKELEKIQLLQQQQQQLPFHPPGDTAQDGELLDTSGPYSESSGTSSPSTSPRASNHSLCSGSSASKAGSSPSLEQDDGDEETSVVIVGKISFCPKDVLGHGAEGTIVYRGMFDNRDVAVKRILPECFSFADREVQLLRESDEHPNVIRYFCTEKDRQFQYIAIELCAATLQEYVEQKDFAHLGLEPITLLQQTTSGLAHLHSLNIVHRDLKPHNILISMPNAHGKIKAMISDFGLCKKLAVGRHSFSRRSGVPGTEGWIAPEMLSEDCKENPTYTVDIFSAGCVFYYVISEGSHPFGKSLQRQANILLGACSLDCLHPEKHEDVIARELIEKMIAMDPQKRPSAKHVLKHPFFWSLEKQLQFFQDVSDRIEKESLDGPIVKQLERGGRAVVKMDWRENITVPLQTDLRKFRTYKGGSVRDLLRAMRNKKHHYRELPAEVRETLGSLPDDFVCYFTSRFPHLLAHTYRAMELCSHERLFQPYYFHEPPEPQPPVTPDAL

[5] = target: Proto-oncogene tyrosine-protein kinase Src (Homo sapiens, UniProt P12931); assay: Inhibition of SRC K1 labeling site in human Huh-7 cells at 10 uM by KiNativ Profiling analysis relative to control; type: cell-based
Proto-oncogene tyrosine-protein kinase Src, sequence (P12931 2-536 limits assumed): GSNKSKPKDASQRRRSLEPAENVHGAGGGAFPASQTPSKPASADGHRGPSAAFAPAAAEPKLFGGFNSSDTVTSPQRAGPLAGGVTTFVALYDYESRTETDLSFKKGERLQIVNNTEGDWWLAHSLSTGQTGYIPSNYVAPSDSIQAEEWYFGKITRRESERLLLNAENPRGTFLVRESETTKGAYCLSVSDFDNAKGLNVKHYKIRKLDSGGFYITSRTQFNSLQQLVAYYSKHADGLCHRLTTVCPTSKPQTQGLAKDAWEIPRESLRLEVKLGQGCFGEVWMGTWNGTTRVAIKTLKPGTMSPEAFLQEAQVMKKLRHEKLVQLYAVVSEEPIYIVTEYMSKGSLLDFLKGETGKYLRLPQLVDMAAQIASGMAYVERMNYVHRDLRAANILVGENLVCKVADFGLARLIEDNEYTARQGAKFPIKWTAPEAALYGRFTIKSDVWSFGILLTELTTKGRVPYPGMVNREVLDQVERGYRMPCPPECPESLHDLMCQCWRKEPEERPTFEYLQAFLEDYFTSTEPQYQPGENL

[6] = target: Calcium/calmodulin-dependent protein kinase type II subunit alpha (Homo sapiens) (UniProt Q9UQM7); assay: Inhibition of CAMK2a K2 labeling site in human Huh-7 cells at 10 uM by KiNativ Profiling analysis relative to control; type: cell-based
[7] = target: STE20-like serine/threonine-protein kinase (Homo sapiens) (UniProt Q9H2G2); assay: Inhibition of SLK K2 labeling site harbouring DLKAGNILFTLDGDIK in human Huh-7 cells at 1 uM by KiNativ Profiling analysis relative to control; type: cell-based
STE20-like serine/threonine-protein kinase (Homo sapiens), sequence (Q9H2G2 whole entry, looked up): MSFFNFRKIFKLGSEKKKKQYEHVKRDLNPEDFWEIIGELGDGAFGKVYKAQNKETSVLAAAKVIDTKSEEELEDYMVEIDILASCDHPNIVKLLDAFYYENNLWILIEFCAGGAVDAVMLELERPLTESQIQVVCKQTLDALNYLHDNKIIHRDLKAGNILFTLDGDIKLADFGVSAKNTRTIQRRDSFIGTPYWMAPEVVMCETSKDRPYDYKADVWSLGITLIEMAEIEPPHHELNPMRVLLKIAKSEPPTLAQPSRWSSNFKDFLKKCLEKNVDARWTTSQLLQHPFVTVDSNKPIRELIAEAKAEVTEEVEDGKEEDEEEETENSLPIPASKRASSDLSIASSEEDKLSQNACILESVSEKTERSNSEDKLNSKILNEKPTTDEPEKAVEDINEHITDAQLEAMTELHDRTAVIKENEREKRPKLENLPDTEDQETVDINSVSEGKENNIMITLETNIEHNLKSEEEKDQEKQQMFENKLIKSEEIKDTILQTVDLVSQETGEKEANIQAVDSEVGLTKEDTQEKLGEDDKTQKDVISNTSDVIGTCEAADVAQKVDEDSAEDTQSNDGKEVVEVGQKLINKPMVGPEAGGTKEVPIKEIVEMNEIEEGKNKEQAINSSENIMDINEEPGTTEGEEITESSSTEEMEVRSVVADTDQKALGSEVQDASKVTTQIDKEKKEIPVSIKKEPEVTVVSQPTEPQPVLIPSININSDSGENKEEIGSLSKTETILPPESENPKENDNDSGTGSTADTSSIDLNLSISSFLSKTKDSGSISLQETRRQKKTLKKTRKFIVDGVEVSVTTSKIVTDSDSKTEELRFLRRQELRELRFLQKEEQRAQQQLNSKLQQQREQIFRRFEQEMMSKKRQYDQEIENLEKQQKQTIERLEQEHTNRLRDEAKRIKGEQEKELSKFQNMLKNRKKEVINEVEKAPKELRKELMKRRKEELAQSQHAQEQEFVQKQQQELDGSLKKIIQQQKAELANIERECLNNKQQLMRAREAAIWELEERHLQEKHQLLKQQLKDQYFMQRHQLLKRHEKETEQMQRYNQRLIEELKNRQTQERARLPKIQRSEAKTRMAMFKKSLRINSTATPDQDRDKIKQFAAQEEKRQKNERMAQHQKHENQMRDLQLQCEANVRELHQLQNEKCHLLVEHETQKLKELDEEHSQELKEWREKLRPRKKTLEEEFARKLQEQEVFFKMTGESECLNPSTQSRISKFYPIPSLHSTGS

[8] = target: STE20-like serine/threonine-protein kinase (Homo sapiens) (UniProt Q9H2G2); assay: Inhibition of SLK K1 labeling site in human Huh-7 cells at 1 uM by KiNativ Profiling analysis relative to control; type: cell-based
[9] = target: Peripheral plasma membrane protein CASK (Homo sapiens) (UniProt O14936); assay: Inhibition of CASK Lys1 labeling site in human A-375 cells at 0.05 uM by KiNativ Profiling analysis relative to control
Peripheral plasma membrane protein CASK (Homo sapiens), sequence (O14936 whole entry, looked up): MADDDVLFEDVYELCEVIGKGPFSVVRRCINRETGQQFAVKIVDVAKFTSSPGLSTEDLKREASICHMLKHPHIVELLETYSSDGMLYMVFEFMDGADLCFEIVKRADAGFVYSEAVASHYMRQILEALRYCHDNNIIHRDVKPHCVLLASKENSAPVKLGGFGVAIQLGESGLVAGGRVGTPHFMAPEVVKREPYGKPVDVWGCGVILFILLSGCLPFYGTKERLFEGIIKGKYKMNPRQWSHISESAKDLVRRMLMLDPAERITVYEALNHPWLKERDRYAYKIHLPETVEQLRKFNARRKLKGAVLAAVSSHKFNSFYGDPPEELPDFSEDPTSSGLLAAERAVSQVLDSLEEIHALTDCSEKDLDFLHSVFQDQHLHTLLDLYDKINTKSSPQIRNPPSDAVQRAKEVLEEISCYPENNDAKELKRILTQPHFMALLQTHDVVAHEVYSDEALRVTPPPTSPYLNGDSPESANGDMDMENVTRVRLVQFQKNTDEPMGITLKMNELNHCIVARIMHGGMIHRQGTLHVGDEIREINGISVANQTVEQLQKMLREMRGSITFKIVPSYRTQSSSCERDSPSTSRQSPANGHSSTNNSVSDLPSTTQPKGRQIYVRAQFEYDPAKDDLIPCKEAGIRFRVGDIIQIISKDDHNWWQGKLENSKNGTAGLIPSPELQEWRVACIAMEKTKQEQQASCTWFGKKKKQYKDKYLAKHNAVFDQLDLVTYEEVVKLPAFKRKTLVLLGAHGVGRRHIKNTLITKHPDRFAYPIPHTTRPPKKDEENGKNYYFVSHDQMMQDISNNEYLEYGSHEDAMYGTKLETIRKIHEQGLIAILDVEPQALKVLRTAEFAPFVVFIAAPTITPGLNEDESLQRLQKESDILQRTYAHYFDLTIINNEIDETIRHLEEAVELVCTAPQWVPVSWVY

[10] = tested on: Tyrosine-protein kinase ABL1 (Homo sapiens), P00519 [T315I]; assay: Inhibition of nonphosphorylated ABL1 T315I mutant (unknown origin) at 1 uM by Ambit Kinomescan binding assay relative to control
[11] = target: 5'-AMP-activated protein kinase catalytic subunit alpha-1 (Homo sapiens) (UniProt Q13131); assay: Inhibition of AMPKa1 ATP Loop labeling site in human A-375 cells at 5 uM by KiNativ Profiling analysis relative to control; type: cell-based
[12] = target: Maternal embryonic leucine zipper kinase (Homo sapiens) (UniProt Q14680); assay: Inhibition of MELK Lys2 labeling site in human A-375 cells at 0.5 uM by KiNativ Profiling analysis relative to control; type: cell-based
Maternal embryonic leucine zipper kinase (Homo sapiens), sequence (Q14680 whole entry, looked up): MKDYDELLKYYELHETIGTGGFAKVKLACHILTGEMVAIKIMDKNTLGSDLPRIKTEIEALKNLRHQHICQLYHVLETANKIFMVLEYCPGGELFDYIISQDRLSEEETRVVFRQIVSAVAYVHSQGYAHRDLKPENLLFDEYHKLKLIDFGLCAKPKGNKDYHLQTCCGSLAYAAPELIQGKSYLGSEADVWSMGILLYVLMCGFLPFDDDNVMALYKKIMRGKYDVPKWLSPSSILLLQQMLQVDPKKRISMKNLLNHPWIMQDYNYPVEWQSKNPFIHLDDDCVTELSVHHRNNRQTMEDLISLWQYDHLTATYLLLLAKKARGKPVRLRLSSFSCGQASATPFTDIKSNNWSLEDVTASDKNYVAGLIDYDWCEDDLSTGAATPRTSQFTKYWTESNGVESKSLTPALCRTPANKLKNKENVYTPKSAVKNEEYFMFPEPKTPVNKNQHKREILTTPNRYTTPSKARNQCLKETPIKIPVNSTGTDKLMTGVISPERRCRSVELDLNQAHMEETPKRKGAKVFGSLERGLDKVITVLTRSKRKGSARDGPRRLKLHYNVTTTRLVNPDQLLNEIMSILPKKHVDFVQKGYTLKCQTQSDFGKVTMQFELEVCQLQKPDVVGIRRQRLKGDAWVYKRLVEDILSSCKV

[13] = target: Serine/threonine-protein kinase PLK1 (Homo sapiens) (UniProt P53350); assay: Inhibition of PLK1 Lys2 labeling site in human A-375 cells at 0.5 uM by KiNativ Profiling analysis relative to control; type: cell-based
[14] = target: Serine/threonine-protein kinase 4 (Homo sapiens) (UniProt Q13043); assay: Inhibition of MST1 Lys1 labeling site harbouring AIHKETGQIVAIKQVPVESDLQEIIK in human A-375 cells at 0.5 uM by KiNativ Profiling analysis relative to control

Row | SMILES | inhibition [1] | inhibition [2] | inhibition [3] | inhibition [4] | inhibition [5] | inhibition [6] | inhibition [7] | inhibition [8] | inhibition [9] | inhibition [10] | inhibition [11] | inhibition [12] | inhibition [13] | inhibition [14]
1 | CCN1CCN(Cc2ccc(NC(=O)c3ccc(C)c(Oc4ccnc5[nH]ccc45)c3)cc2C(F)(F)F)CC1 | 11% | inactive | 2.8% | 15.9% | 50.1% | 6.2% | 66.5% | 3.5% | 10.9% |  |  |  |  | 
2 | CCN1CCN(Cc2ccc(NC(=O)c3ccc(C)c(/C=C/c4cnc5[nH]ccc5c4OC)c3)cc2C(F)(F)F)CC1 |  |  |  |  |  |  |  |  |  | 11% | 9.1% | 1.9% | 13.2% | -4.7%

— ChEMBL document CHEMBL5696442, “Discovery of type II inhibitors of TGFβ-activated kinase 1 (TAK1) and mitogen-activated protein kinase kinase kinase kinase 2 (MAP4K2)” (J Med Chem, 2015)
